The results in this text go back to PubChem BioAssay (NCI).

Common to all, as to test: NCI anticancer screen, dose series, 48 h
Experiment [1] concerns TK-10 renal.
The test system of experiment [2] is CAKI-1 renal.
For experiment [3], the system named is NCI-H460 lung.
Experiment [4] deals with CCRF-CEM leukemia.
Experiment [5] relates to SF-539 CNS.
Experiment [6] relates to SF-295 CNS.
The test system of experiment [7] is K-562 leukemia.
For experiment [8], the system named is PC-3 prostate.
In experiment [9] the test system is HOP-62 NSCLC.
The test system of experiment [10] is DU-145 prostate.

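These data come from cells grown in 96-well plates and exposed to compound for 48 hours at five concentrations. Abbreviation: GI50, concentration required for 50% inhibition of growth. TGI: concentration producing complete growth inhibition.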

Regarding `Cc1c[nH]c(=O)n(Cc2nnc(CCC(=O)c3nc4ccccc4[nH]3)o2)c1=O`, the GI50 in experiment [1] is 3.68 µM; in experiment [2], 7.22 µM; in [3] it was 0.387 µM; in experiment [4], 0.459 µM; in experiment [5], 0.799 µM; in experiment [6] it was 0.728 µM. The GI50 is 1.03 µM in [7], 0.477 µM in experiment [8], 0.967 µM in experiment [9] and 0.337 µM in [10]. Besides, the TGI in experiment [1] is more than 80.6 µM; in experiment [2] it was more than 100 µM; in experiment [3] it was more than 43.1 µM; in experiment [4], more than 100 µM; in [5], 29.9 µM; in experiment [6] it was 9.48 µM. Moreover, the TGI in experiment [7] is more than 100 µM; in [8] it was more than 100 µM; in experiment [9] it was more than 100 µM; in experiment [10], 1.21 µM.
Take `CC(=O)Nc1ccc(OC(C)=O)cc1`: the GI50 is 10.7 µM in experiment [1]; 0.084 µM in [2]; less than 0.01 µM in [3]; less than 0.01 µM in experiment [4]; less than 0.01 µM in experiment [5]; less than 0.01 µM in experiment [6]. The GI50 in experiment [7] is less than 0.01 µM; in experiment [8], less than 0.01 µM; in [9], less than 0.01 µM; in experiment [10] it was less than 0.0105 µM. Moreover, the TGI in experiment [1] is more than 100 µM; in experiment [2] it was 28.8 µM; in experiment [3] it was 16.9 µM; in experiment [4], more than 49.8 µM; in [5] it was 0.766 µM; in [6] it was 12.4 µM. The TGI is more than 57.2 µM in [7], more than 66.3 µM in [8], 14.7 µM in experiment [9] and 0.0172 µM in experiment [10].
For `Cc1ccc2[nH]c(O)c(N=Nc3ccccc3[N+](=O)[O-])c2c1`, the TGI in experiment [1] was 64.5 µM; in experiment [2] it was more than 100 µM; in experiment [3], more than 100 µM; in experiment [4], more than 100 µM; in [5], 4.78 µM; in experiment [6] it was more than 58.8 µM. For the same molecule, the TGI was more than 100 µM in experiment [7], more than 100 µM in [8], 10.7 µM in experiment [9] and more than 100 µM in experiment [10].
`C#CCOC(=O)/C=C/C(=O)Oc1ccc2c(C)cc(=O)oc2c1`: the GI50 in experiment [1], in [2], in [3], in [4], in experiment [5] and in [6] was more than 100 µM each time. Further, the GI50 in experiment [7], in experiment [8], in experiment [9] and in experiment [10] was more than 100 µM each time. Also, the TGI in [1], in [2], in experiment [3], in experiment [4], in experiment [5] and in experiment [6] was more than 100 µM throughout. Also, the TGI in experiment [7], in experiment [8], in experiment [9] and in experiment [10] was more than 100 µM in each case.
Consider `Cc1ccc2[nH]c(C(=O)NN3C(=O)C(C)SC34CCC(C)CC4)c(-c3ccccc3)c2c1` (centres undefined), for which the GI50 in experiment [1] was 14.2 µM; in experiment [2] it was 15.6 µM; in [3], 15.7 µM; in experiment [4], 20.4 µM; in [5], 20.8 µM; in [6], 14.3 µM. The GI50 in [7] is 16.2 µM; in experiment [8] it was 13.8 µM; in experiment [9] it was 18.1 µM; in experiment [10], 21.8 µM. For the same molecule, the TGI was determined as 29.6 µM in experiment [1]; 38 µM in experiment [2]; 43.9 µM in experiment [3]; 79.6 µM in [4]; 45.6 µM in [5]; 32.9 µM in [6]. The TGI in [7] worked out at 61.9 µM; in experiment [8], 46 µM; in experiment [9], 37.7 µM; in experiment [10] it was 54.3 µM.
In the case of `COc1ccc2nc3c(cc2c1)C(=O)CC(c1ccccc1)C3` (centres undefined), the GI50 in experiment [1] was more than 100 µM; in experiment [2], 0.552 µM; in [3], 1.44 µM; in experiment [4], 0.291 µM; in experiment [5], 1.22 µM; in experiment [6], 0.905 µM. Besides, the GI50 in experiment [7] is 0.359 µM; in [8], 0.901 µM; in [9], 2.75 µM; in [10], 0.595 µM. Also, the TGI is more than 100 µM in experiment [1]; more than 100 µM in experiment [2]; more than 100 µM in [3]; more than 100 µM in experiment [4]; 5.15 µM in experiment [5]; 11 µM in experiment [6]. For the same molecule, the TGI in [7] was more than 100 µM; in [8] it was more than 100 µM; in [9] it was more than 100 µM; in [10], more than 58.1 µM.
Turning to `Fc1ccc(-c2ncn(CCCN3CCOCC3)c2-c2ccncc2)cc1`, the GI50 in experiment [1], in [2], in [3], in [4], in experiment [5] and in experiment [6] was more than 25 µM each time. Further, the GI50 in experiment [7], in [8], in experiment [9] and in experiment [10] was more than 25 µM in each case. In addition, the TGI in [1], in experiment [2], in experiment [3], in experiment [4], in [5] and in [6] was more than 25 µM in each case. In addition, the TGI in [7], in experiment [8], in experiment [9] and in experiment [10] was more than 25 µM throughout.
Consider `CCOC(=O)Nc1ccc2c(c1)C(=O)N(CC)c1ccccc1O2`, for which the GI50 in experiment [1] was more than 100 µM; in [2], 0.179 µM; in experiment [3], 0.116 µM; in experiment [4] it was 0.0889 µM; in experiment [5] it was 0.0942 µM; in [6], 0.0846 µM. In addition, the GI50 in [7] is 0.0484 µM; in [8] it was 0.121 µM; in [9], 0.128 µM; in experiment [10], 0.127 µM. Besides, the TGI in experiment [1] is more than 100 µM; in experiment [2], more than 100 µM; in [3] it was more than 100 µM; in [4], more than 100 µM; in experiment [5], 0.643 µM; in experiment [6], 0.79 µM. The TGI in experiment [7], in experiment [8] and in experiment [9] was more than 100 µM throughout.
Regarding `Cc1ccc(-c2nc(/C=N/Nc3cc(C)nc4ccc(Br)cc34)c(C)o2)cc1`, the GI50 in [1] is 1.82 µM; in [2], 1.73 µM; in experiment [3] it was 1.94 µM; in experiment [4], 2.17 µM; in experiment [5] it was 1.72 µM; in [6] it was 2.86 µM. Besides, the GI50 is 1.93 µM in experiment [7], 1.71 µM in experiment [8], 1.87 µM in experiment [9] and 1.8 µM in experiment [10]. Besides, the TGI worked out at 3.29 µM in experiment [1]; 3.12 µM in experiment [2]; 3.73 µM in experiment [3]; 5.51 µM in experiment [4]; 3.18 µM in experiment [5]; 8.8 µM in experiment [6]. Also, the TGI in [7] turned out to be 4.58 µM; in experiment [8], 3.3 µM; in [9], 3.55 µM; in [10] it was 3.36 µM.
With `Cc1nc(-n2nc(-c3ccccc3)cc2-c2ccccc2)sc1C(=O)/C=C/c1ccc([N+](=O)[O-])cc1`, the TGI in experiment [1] is more than 66.8 µM; in experiment [2], more than 55 µM; in experiment [3], more than 69.3 µM; in experiment [4], 48.1 µM; in experiment [5], 18.8 µM; in experiment [6] it was more than 100 µM. The TGI is more than 70.6 µM in experiment [7], more than 100 µM in [8], more than 94.4 µM in experiment [9] and more than 100 µM in experiment [10].
Take `C#Cc1cccc(NC(=O)c2cccc(NC(=O)CCl)c2)c1`: the GI50 in experiment [1] is 25.9 µM; in [2], 31.5 µM; in [3], 5.49 µM; in experiment [4], 7.29 µM; in experiment [5], 13 µM; in experiment [6] it was 51.1 µM. Moreover, the GI50 in [7] is 7.74 µM; in experiment [8], 18.9 µM; in [9], 27.8 µM; in [10], 29.2 µM. Also, the TGI in [1] was more than 82.5 µM; in experiment [2] it was more than 82.5 µM; in [3], 20 µM; in experiment [4], 54.5 µM; in [5] it was 24.5 µM; in experiment [6], more than 82.5 µM. Also, the TGI in experiment [7] was more than 82.5 µM; in [8] it was 70.7 µM; in [9] it was more than 82.5 µM; in [10] it was more than 82.5 µM.
`Cc1cc(=O)oc2cc3oc(N(C)c4ccccc4)nc(=O)c3cc12`: the TGI in experiment [1], in experiment [2], in experiment [3], in experiment [4], in experiment [5] and in experiment [6] was more than 100 µM each time. Moreover, the TGI in experiment [7], in experiment [8], in experiment [9] and in experiment [10] was more than 100 µM throughout.
In the case of `O=c1oc2ccc(Cl)cc2c(=O)n1-c1ccc(F)cc1F`, the GI50 in [1] is 5.55 µM; in experiment [2], 1.45 µM; in experiment [3], 2.2 µM; in experiment [4], 3.32 µM; in experiment [5], 1.68 µM; in experiment [6] it was 1.76 µM. The GI50 is 2.03 µM in experiment [7], 1.07 µM in [8], 1.49 µM in [9] and 3.75 µM in [10]. The TGI in experiment [1] was 68.2 µM; in [2], 5.6 µM; in [3], 11.5 µM; in experiment [4], 18.1 µM; in experiment [5], 8.67 µM; in experiment [6], 3.55 µM. Moreover, the TGI in experiment [7] was more than 100 µM; in experiment [8] it was 4.03 µM; in [9] it was 4.84 µM; in experiment [10], 46.6 µM.
Take `O=C(Nc1n[nH]c2nc(-c3ccc(O)cc3)c(Br)cc12)C1CC1`: the GI50 in [1] is 7.29 µM; in experiment [2] it was 3.11 µM; in experiment [3] it was 1.89 µM; in [4], 1.82 µM; in experiment [5] it was 1.34 µM; in experiment [6], 2.38 µM. The GI50 is 2.86 µM in [7], 4.49 µM in experiment [8], 5.32 µM in experiment [9] and 3.8 µM in experiment [10]. Besides, the TGI was 17.4 µM in experiment [1]; 16.5 µM in experiment [2]; more than 20.1 µM in experiment [3]; more than 25 µM in [4]; 6.27 µM in experiment [5]; 14.8 µM in [6]. Besides, the TGI was more than 25 µM in experiment [7], more than 23.4 µM in experiment [8], 14 µM in [9] and 20.4 µM in experiment [10].
With `CC(C)=Cc1cccc2[nH]c(O)c(N=Nc3ccc(S(N)(=O)=O)cc3)c12`, the GI50 in [1] was 2.29 µM; in [2], 1.69 µM; in experiment [3], 1.32 µM; in [4], 1.23 µM; in [5] it was 2.72 µM; in [6], 3.4 µM. Also, the GI50 in [7] is 3.69 µM; in experiment [8], 6.2 µM; in experiment [9], more than 14.3 µM; in experiment [10], 5.09 µM. The TGI in [1] is more than 25 µM; in [2] it was more than 25 µM; in [3], more than 20.5 µM; in experiment [4], more than 25 µM; in experiment [5] it was more than 20.1 µM; in experiment [6] it was more than 25 µM. Also, the TGI in experiment [7], in experiment [8], in [9] and in experiment [10] was more than 25 µM in each case.
For `CN(/N=C/c1ccccc1O)c1ccc2ccccc2n1`, the TGI in experiment [1] is 44 µM; in experiment [2], more than 100 µM; in [3], 55 µM; in [4], more than 100 µM; in [5], 37.1 µM; in experiment [6], 30.4 µM. Further, the TGI was more than 100 µM in experiment [7], 34.3 µM in experiment [8], 29.9 µM in experiment [9] and 41.3 µM in [10].
For the molecule `COc1ccccc1NC(=O)CC(=O)n1nc(C)c(N=Nc2ccccc2Cl)c1C`, the TGI in [1], in [2], in [3], in experiment [4], in [5] and in experiment [6] was more than 100 µM each time. Moreover, the TGI in [7], in experiment [8], in experiment [9] and in experiment [10] was more than 100 µM each time.
